From patent US10570152B2, “Antibacterial therapeutics and prophylactics” (VYOME BIOSCIENCES PVT. LTD., priority 2015, dated 2020)
Values after ≈ are worked out from the molar mass of the structure shown. Read-outs that look alike come from different tables or passages of the source.

Legend:
S. aureus ATCC 43300 = test: MIC by micro broth dilution; format: cell-based; settings: for MIC: Staphylococcus aureus, ATCC43300, S. aureus ATCC 43300, read-out: Minimum inhibitory concentration (MIC)
Protocol: (§1) MIC of DART molecules were determined by micro broth dilution as per CLSI guidelines. Bacterial strains were cultured in Brain Heart Infusion Agar (BHIA) at 37° C. for 24 h. For MIC determination, BHI broth (100 μl) was added to each of the wells of a 96 well plate. 100 μl of broth containing drug was added to the first well (1A to 1H) and thereafter serial (double) dilutions were carried out for up to 10 wells (column 1 to column 10 of the 96 well plate). Bacterial inoculum was prepared by adjusting the bacterial culture turbidity to 0.5 McFarland standard (approximately 1.5×10^8 cells/ml) and further diluted (100 times with sterile BHI broth). Diluted bacterial suspension (100 μl) was added to each well except sterility control wells (column 12 of 96 well plate). The plates were incubated at 37° C. for 24 h. The MIC of the test compound was measured after addition of Alamar blue dye.

E. faecium CCARM 5207 = test: MIC by micro broth dilution; format: cell-based; settings: Enterococcus faecium, CCARM5207, read-out: Minimum inhibitory concentration (MIC)
Protocol: as §1

P. aeruginosa CCARM 2204 = test: MIC by micro broth dilution; format: cell-based; settings: Pseudomonas aeruginosa, CCARM2204, read-out: Minimum inhibitory concentration (MIC)
Protocol: as §1

S. aureus MTCC 6908 = test: MIC by micro broth dilution; format: cell-based; settings: Staphylococcus aureus, MTCC6908, read-out: Minimum inhibitory concentration (MIC)
Protocol: as §1

E. coli BAA 196 = test: MIC by micro broth dilution; format: cell-based; settings: Escherichia coli, BAA196, read-out: Minimum inhibitory concentration (MIC)
Protocol: as §1

E. aerogenes M2-1 = test: MIC by micro broth dilution; format: cell-based; settings: Klebsiella aerogenes, M21, read-out: Minimum inhibitory concentration (MIC)
Protocol: as §1

E. faecium NCIM 5421 = test: MIC by micro broth dilution; format: cell-based; settings: Enterococcus faecium, NCIM5421, read-out: Minimum inhibitory concentration (MIC)
Protocol: as §1

S. aureus CCARM 3505 = test: MIC by micro broth dilution; format: cell-based; settings: Staphylococcus aureus, CCARM3505, read-out: Minimum inhibitory concentration (MIC)
Protocol: as §1

E. fecalis CCARM 5168 = test: MIC by micro broth dilution; format: cell-based; settings: read-out: Minimum inhibitory concentration (MIC)
Protocol: as §1

A. baumannii ATCC 1906 = test: MIC by micro broth dilution; format: cell-based; settings: Acinetobacter baumannii, ATCC1906, read-out: Minimum inhibitory concentration (MIC)
Protocol: as §1

E. aerogenes NCIM 5139 = test: MIC by micro broth dilution; format: cell-based; settings: Klebsiella aerogenes, NCIM5139, read-out: Minimum inhibitory concentration (MIC)
Protocol: as §1

[1] = tested on: S. epidermidis ATCC 35984; test: MIC by micro broth dilution; format: cell-based; settings: Staphylococcus epidermidis, ATCC35984, read-out: Minimum inhibitory concentration (MIC)
Protocol: as §1

E. coli MTCC 1687 = test: MIC by micro broth dilution; format: cell-based; settings: Escherichia coli, MTCC1687, read-out: Minimum inhibitory concentration (MIC)
Protocol: as §1

A. baumannii CCARM 12001 = test: MIC by micro broth dilution; format: cell-based; settings: Acinetobacter baumannii, CCARM12001, read-out: Minimum inhibitory concentration (MIC)
Protocol: as §1

A. baumannii CCARM 12020 = test: MIC by micro broth dilution; format: cell-based; settings: Acinetobacter baumannii, CCARM12020, read-out: Minimum inhibitory concentration (MIC)
Protocol: as §1

S. epidermidis S12-1 = test: MIC by micro broth dilution; format: cell-based; settings: Staphylococcus epidermidis, S121, read-out: Minimum inhibitory concentration (MIC)
Protocol: as §1

P. aeruginosa ATCC 27853 = test: MIC by micro broth dilution; format: cell-based; settings: Pseudomonas aeruginosa, ATCC27853, read-out: Minimum inhibitory concentration (MIC)
Protocol: as §1

P. aeruginosa CCARM 2161 = test: MIC by micro broth dilution; format: cell-based; settings: Pseudomonas aeruginosa, CCARM2161, read-out: Minimum inhibitory concentration (MIC)
Protocol: as §1

K. pneumonia ATCC 13883 = test: MIC by micro broth dilution; format: cell-based; settings: for MIC: Klebsiella pneumoniae, ATCC13883, K. pneumonia ATCC 13883, read-out: Minimum inhibitory concentration (MIC)
Protocol: as §1

Gram negative pathogens = test: MIC interpretations, Gram negative pathogens; format: cell-based
Protocol: as §1

[2] = tested on: S. epidermidis ATCC 35984 biofilm; test: Biofilm disruption assay (MTT) with compounds and compound loaded beads; format: cell-based; settings: for EC50: Staphylococcus epidermidis
Protocol: S. epidermidis ATCC 35984 was grown in Brain Heart Infusion Agar (BHIA) at 37° C. for 24 h. The loop full of bacterial culture was suspended in sterile water and matched the turbidity against 0.5 McFarland Standard (approximately 1.5×10^8), 100 μl of culture suspension was added into each well of the 96 well plate and plates were incubated at 37° C. for 48 h for biofilm formation. The biofilm formed in each well was washed twice with sterile water to remove the planktonic cells. Then biofilm was treated with 100 yl of BHI broth suspended with various concentrations of DART molecules, followed by incubation of the plates at 37° C. for 24 h. Subsequently the biofilm in the wells were stained with MTT reagent and the plates were incubated at 37° C. for 2 h. The precipitate formed in the wells was dissolved in 100 μl of dimethyl sulfoxide (DMSO) and the absorbance was measured at 600 nm in multi well plate reader to determine the minimum biofilm inhibitory concentration (MBIC). The MBIC was calculated by subtracting the absorbance value of each drug treated sample from that of 48 h growth control.

[3] = tested on: P. acnes CCARM 9010 induced paw inflammation; test: Anti-inflammatory action in vivo, rat paw edema model; parameters: species or system Sprague Dawley rats; settings: topical, 24 h post initiation of treatment (32 h post induction)
Excerpt: Host inflammation is one of the crucial clinical feature of most of the indications associated with bacterial infections. The inventors used an exemplary compound of the invention (Compound 2) to test the anti-inflammatory effects in vivo using rat paw edema model. Inflammation was induced using one of the opportunistic pathogens Propionibacterium acnes prevalent in implant associated infections. Sprague Dawley rats were used for the study and infection was induced by P. acnes CCARM 9010. An inoculum of 1×10^9 CFU/ml of the heat killed bacteria was injected to the plantar side of the right hind paw (˜2×10^7 CFU/paw) except in sham control where saline was injected. Treatments were initiated 8 h post injection by applying the test formulation of Compound 2 (30 mg) twice daily to the plantar surface of the right hind paw and gently rubbing 50 times with the index finger. Comparators Acnedap (dapsone 5% gel) and adapalene gel (Adaferin®) were applied twice daily and once daily based on clinical prescription dosage. Paw sizes were measured in millimeters using Vernier calipers at the start of the infection, 8 h post infection, and 24 h post initiation of treatment (32 h post induction of inflammation). The change in paw size, due to inflammation, was evaluated as the difference between the paw size measured at each time point and the basal paw size measured immediately before edema induction.

S. epidermidis S5-2 = test: Sequential ZIB (zone of inhibition) assay for PMMA beads; format: cell-based, Staphylococcus epidermidis; settings: SmartSet HV impregnated beads
Protocol: S. epidermidis S5-2 cells were grown in Brain Heart Infusion Agar (BHIA) at 37° C. for 24 h. 100 μl of 0.5 McFarland equal bacterial suspension was spread on BHA plates. Drug loaded beads were placed above these plates. Plates were incubated at 37° C. for 24 h. Next day, zone of inhibition (ZOI) the beads were measured following which the beads were placed on fresh BHA plates with bacterial suspension spread and this experiment was continued up to seven days. The drug release pattern was determined by compiling and analyzing the ZOI data of beads on each ZOI cycle up to seven days.

SMILES	MIC (S. aureus ATCC 43300) [µg/mL]	MIC (P. aeruginosa CCARM 2204) [µg/mL]	MIC (S. aureus MTCC 6908) [µg/mL]	MIC (E. coli BAA 196) [µg/mL]	MIC (E. faecium NCIM 5421) [µg/mL]	MIC (S. aureus CCARM 3505) [µg/mL]	MIC (A. baumannii ATCC 1906) [µg/mL]	MIC [1] [µg/mL]	MIC (E. coli MTCC 1687) [µg/mL]	MIC (A. baumannii CCARM 12001) [µg/mL]	MIC (A. baumannii CCARM 12020) [µg/mL]	MIC (S. epidermidis S12-1) [µg/mL]	MIC (P. aeruginosa ATCC 27853) [µg/mL]	MIC (P. aeruginosa CCARM 2161) [µg/mL]	MIC (K. pneumonia ATCC 13883) [µg/mL]	other results
CC1SC2C(C(=O)O)C(=O)c3cc(F)c(N4CCN(CC(=O)c5ccccn5)CC4)cc3N12 (centres unmarked) [Compound 33, 6-Fluoro-1-methyl-4-oxo-7-(4-(2-oxo-2-(pyridin-2-yl)ethyl)piperazin-1-yl)-2a,3-dihydro-1H,4H-[1,3]thiazeto[3,2-a]quinoline-3-carboxylic acid]	0.25 (≈ 0.531 µM)	8 (≈ 17 µM)	0.25 (≈ 0.531 µM)	2 (≈ 4.25 µM)	0.125 (≈ 0.266 µM)	> 16	0.06 (≈ 0.128 µM)	0.13 (≈ 0.276 µM)	< 0.03	16 (≈ 34 µM)	4 (≈ 8.5 µM)	8 (≈ 17 µM)	0.5 (≈ 1.06 µM)	16 (≈ 34 µM)	0.06 (≈ 0.128 µM)	MIC (E. faecium CCARM 5207): 8 µg/mL (≈ 17 µM); MIC (E. aerogenes M2-1): 0.06 µg/mL (≈ 0.128 µM); MIC (E. fecalis CCARM 5168): 0.5 µg/mL (≈ 1.06 µM); MIC (E. aerogenes NCIM 5139): 0.0312 µg/mL (≈ 0.0663 µM); activity in words (K. pneumonia ATCC 13883; Klebsiella pneumonia (susceptible)): active; MIC (Gram negative pathogens; Escherichia coli, resistant E. coli (MDR) and E. aerogens): ≤ 1 µg/mL; bio-activity (MIC) range (Gram negative pathogens; different resistant strains of P. aeruginosa, A. baumanni): 4 to 16 µg/mL
CC(=O)NC[C@H]1CN(c2ccc(N3CCN(CC(=O)Nc4ncc([N+](=O)[O-])s4)CC3)c(F)c2)C(=O)O1 [Compound 55, (S)-2-(4-(4-(5-(Acetamidomethyl)-2-oxooxazolidin-3-yl)-2-fluorophenyl)piperazin-1-yl)-N-(5-nitrothiazol-2-yl)acetamide]	0.5 (≈ 0.959 µM)	> 16	0.25 (≈ 0.479 µM)	> 16	0.06 (≈ 0.115 µM)	0.25 (≈ 0.479 µM)	> 16	0.06 (≈ 0.115 µM)	> 16	> 16	> 16	0.5 (≈ 0.959 µM)	> 16	> 16	> 16	fold better activity in comparison to commercial linezolid (S. aureus ATCC 43300; against MRSA): 8 fold; times more active than linezolid analogue (S. aureus ATCC 43300; against MRSA): 8 times; EC50 ([2]; ATCC35984, 48 h biofilm, 24 h treatment, read-out: Concentration of compounds (mg/ml) for 50% biofilm disruption): > 2 mg/mL
Nc1ccc(S(=O)(=O)c2ccc(N)cc2)cc1 [Dapsone, dapsone, reference compound]	–	–	–	–	–	–	–	–	–	–	–	–	–	–	–	Inhibition of inflammation (%) at 24 h post treatment [3]: 43.82%
CN[C@H](CC(C)C)C(=O)N[C@H]1C(=O)N[C@@H](CC(N)=O)C(=O)N[C@H]2C(=O)N[C@H]3C(=O)N[C@H](C(=O)N[C@H](C(=O)O)c4cc(O)cc(O)c4-c4cc3ccc4O)[C@H](O)c3ccc(c(Cl)c3)Oc3cc2cc(c3O[C@@H]2O[C@H](CO)[C@@H](O)[C@H](O)[C@H]2O[C@H]2C[C@](C)(N)[C@H](O)[C@H](C)O2)Oc2ccc(cc2Cl)[C@H]1O [Vancomycin, reference compound]	–	–	–	–	–	–	–	–	–	–	–	–	–	–	–	Biofilm disruption ([2]; PMMA beads of 3 mm diameter): 40; EC50 ([2]; ATCC35984, read-out: Concentration of compounds (mg/ml) for 50% biofilm disruption): 0.02 to 0.03 mg/mL (≈ 13.8 to 20.7 µM); Sequential ZOI (S. epidermidis S5-2; Day-1): 1.4 cm; Sequential ZOI (S. epidermidis S5-2; Day-2): 1.2 cm; Sequential ZOI (S. epidermidis S5-2; Day-3): 0.7 cm; Sequential ZOI (S. epidermidis S5-2; Day-4): 0.7 cm; Sequential ZOI (S. epidermidis S5-2; Day-5): 0 cm; Sequential ZOI (S. epidermidis S5-2; Day-6): 0 cm; Sequential ZOI (S. epidermidis S5-2; Day-7): 0 cm
